For one molecule, Km results are on record in paper PMC8226850, “Thermal Inactivation Kinetics of Kudzu (Pueraria lobata) Polyphenol Oxidase and the Influence of Food Constituents” (Foods, 2021).

Structures are written as SMILES.

The test concerns T1, pPPO (purified kudzu polyphenol oxidase).
T1 construct: gene PPO; single prominent SDS-PAGE band approx. 21 kDa
The experiment in a line: UV-visible spectrophotometry at […] nm, Lineweaver-Burk. The test is classed as biochemical, Pueraria montana var. lobata. As to conditions: catechol oxidation; activity assay in McIlvaine buffer pH 5.0, 25 °C.

Regarding `Oc1ccccc1O` [catechol], the Michaelis constant (Km) – broadly, the concentration of substrate that gives half-maximal velocity – was found to be 23.5 mM.
